Values of other authors in patent publication US9149436B2, “Pharmaceutical product comprising a sequestered agent” (Purdue Pharma L.P., priority 2003, dated 2015).

Details: after oral doses

Row | Structure (SMILES) | duration of action [h]
1 | O=C1CC[C@@]2(O)[C@H]3Cc4ccc(O)c5c4[C@@]2(CCN3CC2CC2)[C@H]1O5 [naltrexone] | ~24
2 | C[C@H]1[C@H]2Cc3ccc(O)cc3[C@]1(C)CCN2CC1CC1 [cyclazocine] | ~24
